Measurements reported in patent US8202507B2, “Assay for vitamin B12 absorption and method of making labeled vitamin B12” (The Regents of the University of California, priority 2004, dated 2012).

Assays:
[1] = cited from earlier work
[2] = AMS assay of B12 absorption in a normal human subject after oral ^14C-vitamin B12; type: in vivo; conditions: for total of oral dose recovered in urine and feces: seven days post-dose, cumulative urine and stool; for delay in the appearance of the label in plasma: plasma by AMS
Procedure: This example describes the use of this labeled B12 and AMS to assay B12 absorption in a normal human subject. A single 1.5 μg dose of the ^14C-vitamin B12 was administered orally and detected by AMS as it appeared in the bloodstream.
The subject was a healthy person with a body mass index (BMI) of 27.5. The subject began complete fecal and urine collection 24 h in advance of the dose and continued complete 24 h collections until Day 7. On the day of dose administration, the subject was fitted with an intravenous catheter in a forearm vein. Blood was drawn into 7 mL tubes containing EDTA. A baseline blood sample was drawn (7 AM) and the dose consumed that corresponded to 2.2 KBq of radioactivity (1.5 μg) was administered in 50 mL of drinking water in a paper cup. The volunteer was allowed to have water ad libitum thereafter, with a light meal taken 2 hr postdose. Blood samples were drawn at frequent intervals for the first 15 hr post-dose and daily thereafter. Meals were controlled for time and content on the dose administration day.
AMS analysis. Aliquots of plasma (30 μL), urine (80 μL) and a stool slurry (80 μL) were dried, combusted to CO2, and reduced to filamentous carbon using known procedures. No other processing preceded the graphization step, thus quantitative recovery was ensured. The ^14C measurements were performed at the Center for Accelerator Mass Spectrometry at Lawrence Livermore National Laboratory. Measurements were conducted to <3% instrument imprecision and, in general, signal acquisition was complete to the desired statistical precision in 3-5 min per sample. The radiation exposure of the subject, due to the ^14C-B12 dose, was equivalent or less than exposure due to 10 hours of intercontinental plane flight.

Substance	solubility in water ([1]; 25° C.)	solubility in acetone, chloroform and ether [1]	solubility in alcohol and phenol [1]	total of oral dose recovered in urine and feces [2]	total of oral dose recovered in urine and feces ([2]; listed as 14C)	share of the quantified output accounted for ([2]; seventy-two hours post-dose, urine and feces)	delay in the appearance of the label in plasma ([2]; single 1.5 μg oral dose)	delay in the appearance of the label in plasma ([2]; single 1.5 μg oral dose, listed as 14C from the labeled vitamin B12)	peak circulating ^14C-B12 as percent of the administered dose ([2]; single 1.5 μg oral dose, plasma, at peak after seven hours)	label in the twenty-four hour urine collection ([2]; single 1.5 μg oral dose, urine, no flushing dose)
Cyanocobalamin	1.2%	insoluble	soluble							
^14C-cyanocobalamin [^14C-vitamin B12]				15.8%	15.9%	99%	two to three	three	less than three	6.8 % of administered dose
